Experimental data as given in patent US9388419B2 (The Regents of the University of Colorado, a body corporate, priority 2009, dated 2016).

How the values were obtained:
E. coli Mach1-T1 = assay: Minimum inhibitory concentration (MIC) of 3-HP, microaerobic, 96 well-plate, MOPS minimal media; assay type: cell-based, Escherichia coli; details: Mach1-T1 with feedback resistant aroH mutant plasmid, MOPS minimal media
Procedure: Overnight cultures of strains were grown in 5 ml LB (with antibiotic where appropriate). A 1 v/v % was used to inoculate a 15 ml conical tube filled to the top with MOPS minimal media and capped. After the cells reached mid exponential phase, the culture was diluted to an OD600 of 0.200. The cells were further diluted 1:20 and a 10 ul aliquot was used to inoculate each well (˜10^4 cells per well).
The minimum inhibitory concentration (MIC) was determined microaerobically in a 96 well-plate format. Overnight cultures of strains were grown in 5 mL LB (with antibiotic where appropriate). A 1% (v/v) inoculum was introduced into a 15 ml culture of MOPS minimal media. After the cells reached mid-exponential phase, the culture was diluted to an OD600 of 0.200. The cells were further diluted 1:20 and a 10 μL aliquot was used to inoculate each well of a 96 well plate (˜10^4 cells per well).

E. coli K12 = assay type: cell-based, Escherichia coli; details: E. coli K12+pSMART-LC-Kan-cynTS vs E. coli K12, M9 minimal media
Procedure: Overnight cultures of strains were grown in 5 ml LB (with antibiotic where appropriate) at 37° C. in a shaking incubator. A 1 v/v % was used to inoculate 10 mL of M9 minimal media. After the cells reached mid-exponential phase, the culture was diluted to an OD600 of 0.200. The cells were further diluted 1:20 and a 10 ul aliquot was used to inoculate each well (˜10^4 cells per well). […] The MIC endpoint is the lowest concentration of compound at which there was no visible growth.

[1] = system: wild-type E. coli BW25113; assay: Toleragram / OD600 / doublings at 3HP 0-50 g/L, E. coli aerobic; assay type: cell-based, Escherichia coli; details: control E. coli, aerobic condition, FIG. 15B
Procedure: Overnight cultures of wild-type E. coli BW25113 were grown in triplicate in 5 mL standard LB medium. 100 uL of overnight cultures were used to inoculate triplicate 5 mL samples of M9 minimal medium+3HP, containing 47.7 mM Na2HPO4, 22 mM KH2PO4, 8.6 mM NaCl, 18.7 mM NH4Cl, 2 mM MgSO4, 0.1 mM CaCl2, and 0.4% glucose, with 3HP concentrations ranging from 0-50 g/L. Starting OD600 ranged from 0.02-0.08. Cultures were incubated at 37 C for about 24 hours, and OD600 was recorded every 1-2 hours for the first 8 hours with a final OD600 recorded at about 24 hours. Maximum specific growth rates (μmax) were calculated by determining the optimal fit of exponential trend lines with OD data for the evaluation period. Specific changes in OD600 over approximately 24 hours (Δ24hrOD600) were calculated as the difference in t=24 hr and t=0 optical density, Δ24hrOD600=(ODt=24)−(ODt=0). Specific number of doublings (Nd) were calculated by solving for N in the equation 2^N=(ODt=24)/(ODt=0).

E. coli = assay type: cell-based, Escherichia coli; details: anaerobic; strain BX_00319.0: BW25113 wild type + pK223-aroH; M9 + Amp 100 μg/mL + 1 mM IPTG
Procedure: For MIC evaluations, the final results are expressed in chemical agent concentrations determined by analysis of the stock solution by HPLC (i.e., see Subsection Mb).
The minimum inhibitory concentration (MIC) was determined anaerobically in a 96 well-plate format. […] Media supplements were added according to levels reported in the Supplements Table, where specified. Overnight cultures of strains were grown in triplicate in 5 mL LB (with antibiotic where appropriate). A 1% (v/v) inoculum was introduced into a 5 ml culture of M9 minimal media.

[2] = 3-HP preparation (TCI America): behaviour of samples neutralized to pH 7.0; assay type: physicochemical; details: 3-HP from TCI America, ether extracted, neutralized with 10 M NaOH to pH 7.0
Source text: 3-HP was obtained from TCI America (Portland, Oreg.). Significant acrylic acid and 2-oxydipropionic contamination was observed via HPLC analysis. Samples were subsequently treated by diethyl ether extraction to remove acrylic acid and a portion of the 2-oxydipropionic contaminants. Samples were then neutralized with 10 M NaOH to a final pH of 7.0. […] The working stock solution was used for the selection and MIC evaluations in this example.
3-HP was obtained from TCI America (Portland, Oreg.). Significant acrylic acid and 2-oxydipropionic contamination was observed via HPLC analysis. Samples were subsequently treated by diethyl ether extraction to remove acrylic acid and a portion of the 2-oxydipropionic contaminants. Samples were then neutralized with 10 M NaOH to a final pH of 7.0. […] The working stock solution was used for the selection, growth rates and MIC evaluations in this example.

[3] = Reactive extraction of 3-HP from fermentation broth with tertiary amine and co-solvents, single pass extraction efficiency; assay type: physicochemical
Procedure: Calcium chloride at 1 M was added as a flocculent to reach a final concentration of about 8.2 g/L. Thereafter the pH was adjusted to a pH of approximately 2.0 using sulfuric acid. Thereafter a volume of this modified fermentation broth was centrifuged at approximately 3,200 g for 5 minutes to yield a clarified broth and a pellet, which was discarded.
Portions of the clarified broth were then subjected to reactive extraction by mixing with a tertiary amine non-polar phase comprising various co-solvents.

[4] = Tripentylamine with Butanol (2)
[5] = Tripentylamine with Methyl ethyl ketone (4)
[6] = Tripentylamine with Methyl tert-butyl ether (5)
[7] = Tripentylamine with p-Xylene (3)

## O=C(O)CCO [3-HP, 3-hydroxypropionic acid]
E. coli Mach1-T1
  improvement in MIC of 3-HP, cells comprising the aroH mutant vs control: 40%
E. coli K12
  improvement in the MIC of 3-HP with cynTS plasmid: over sixty percent
[1]
  3-HP concentration at which a dramatic reduction in cell density (OD600) at 24 hours starts: ≥ 30 g/L
E. coli
  % Increase Over Control: 33%
[2]
  concentration above which considerable 3-HP polymerization was observed at neutral pH: > 35 g/L
  concentration above which considerable insoluble matter was observed at neutral pH: > 35 g/L
[3]; Alamine 336 with Butanol (1)
  3-HP mass extractant: 0.59 G
  3-HP mass raffinate: 0.38 G
  % 3-HP extracted: 61%
  % 3-HP raffinate: 39%
  Total 3HP extracted: 0.59 G
[3]; [4]
  3-HP mass raffinate: 0.81 G
  % 3-HP extracted: 58%
  % 3-HP raffinate: 42%
[3]; [5]
  3-HP mass raffinate: 0.63 G
  % 3-HP extracted: 67%
  % 3-HP raffinate: 33%
[3]; [6]
  3-HP mass extractant: 0.73 G
  % 3-HP extracted: 38%
  % 3-HP raffinate: 62%
  Total 3HP extracted: 0.73 G
[3]; [7]
  3-HP mass extractant: 0.46 G
  % 3-HP extracted: 24%
  % 3-HP raffinate: 76%
  Total 3HP extracted: 0.46 G
